Results on four molecules are retold here after patent US6080746A, “Methods and compositions for the prophylaxis and treatment of cytomegalovirus infections” (priority 1991, dated 2000).

SMILES strings stand for the structures. Values after ≈ are worked out from the molar mass of the structure shown.

For one series, the system named is human CMV. Description: Plaque reduction assay against human CMV (ED50). It is filed as cell-based. For orientation: Plaques are areas of infected cells; plaque reduction assays count them against a control.
In series [1] the test system is HCMV. Kind of series: Virus yield-reduction assay, combination with papaverine on HCMV replication in MRC5 cells (Table 3). It is filed as cell-based, human CMV. The following applies: papaverine (DHPG) 0. The source says: The following results were obtained in testing mixtures of racemic 2'-CdG and papaverine under the same conditions:
Effect of Combination Treatment^a With Papaverine and
(±)-2'-CDG and on HCMV Replication in MRC5 Cells
(§1) (Virus Yield-Reduction Assay)
(§2) ^a Drug treatment began immediately following the virus adsorption

Series [2] deals with CMV. Description: MIC50 against CMV in MRC5 cells. The following applies: Human betaherpesvirus 5. It is filed as cell-based.
The subject of series [3] is human cytomegalovirus (strain AD 169). Description: CMV yield in MRC5 cells (Table 1). Type of series: cell-based. From the text:
(§3) In each case, drug treatment began 0 hr. postinfection.

A further series deals with MRC5 cells. Description: Drug cytotoxicity (gross morphology) in MRC5 cell monolayer cultures (Tables 4 and 5). Type of series: cell-based, human. Here is the method: (§4) The effectiveness of racemic 2'-CdG and of D-2'-CdG on CMV yields in MRC5 cell monolayer cultures was determined by a plaque assay with the results set forth in Tables 4 and 5:
as §2
(§5) ^a Drug treatment began immediately following the 1 1/2 hour

Series [4] deals with human cytomegalovirus (strain AD 169). Description: Inhibition of human cytomegalovirus in MRC5 cells by plaque reduction assay (reduction of CPE, MIC50; Table 1). It is filed as cell-based. The note with it: Human betaherpesvirus 5, MRC5, treatment 0 hr postinfection, read-out: Reduction (%) of CPE at Time of Harvest; for inhibition at 0.1 µg/mL: 0.1 μg/ml; for inhibition at 0.32 µg/mL: 0.32 μg/ml; for inhibition at 1 µg/mL: 1.0 μg/ml; for inhibition at 3.2 µg/mL: 3.2 μg/ml; for inhibition at 10 µg/mL: 10 μg/ml.
Source text: as §3

For series [5], the system named is HCMV. Kind of series: Virus yield-reduction assay, combination with DHPG on HCMV replication in MRC5 cells (Table 2). It is filed as cell-based, human CMV.
Source text: Effect of Combination Treatment^a With (±)-2'-CDG and
DHPG on HCMV Replication in MRC5 Cells
as §1

Series [6] deals with CMV. Kind of series: CMV yields in MRC5 cell monolayer cultures by plaque assay (Tables 4 and 5). Type of series: cell-based. The note with it: virus control 5.5. As to the method: as §4, §2, §5
Series [7] deals with human diploid embryonic lung cells (MRC5). Description: Drug cytotoxicity (gross morphology) in MRC5 cells (Table 1). The source says:
Also evaluated under the same conditions were prior art drugs Ara-A and ganciclovir (DHPG). In each case, drug treatment began 0 hr. postinfection.

The subject of series [8] is CMV. Description: Reduction of CPE in CMV-infected MRC5 cell monolayer cultures (Tables 4 and 5). Type of series: cell-based. The following applies: Human betaherpesvirus 5, MRC5, read-out: Reduction (%) of CPE by CDG at Time of Harvest. As to the method:
as §4, §2, §5

Another series has as its system cytomegalovirus. The note with it: in vivo; cited from earlier work.
Series [9] deals with CMV. Description: ED50 antiviral efficacy against CMV in human foreskin fibroblast cells. Type of series: cell-based. The following applies: Human betaherpesvirus 5, read-out: ED50 (median dose at which 50% antiviral efficacy against CMV is produced). As to the method:
The ED50 value (median dose at which 50% antiviral efficacy against CMV is produced) was 0.06 μg/mL for D-2'-CdG and 0.20 for DHPG in human foreskin fibroblast cells.

Where [10] appears, read: 0.1 μg/ml, virus control 5.5 (DHPG 5.3).
The mark [11] stands for this setting: 0.32 μg/ml, virus control 5.5 (DHPG 5.3).
Where [12] appears, read: 1.0 μg/ml, virus control 5.5 (DHPG 5.3).
Setting [13] is: 3.2 μg/ml, virus control 5.5 (DHPG 5.3).
Where [14] appears, read: 10 μg/ml, virus control 5.5 (DHPG 5.3).

On to `CCCCC(=O)OC[C@H]1O[C@@H](n2cnc3c(=O)[nH]c(N)nc32)C[C@@H]1O` [D-2'-deoxyguanosine-5'-0-valerate], for which the ED50 with human CMV was 0.09 µg/mL (≈ 0.256 µM).
In the series with human CMV, `CC(C)C(=O)OC[C@H]1O[C@@H](n2cnc3c(=O)[nH]c(N)nc32)C[C@@H]1OC(=O)C(C)C` (racemic) [racemic 2'-deoxyguanosine-3',5'-0-diisobutyrate, 2'-deoxyguanosine-3',5'-0-diisobutyrate] had an ED50 of 3.9 µg/mL (≈ 9.57 µM).
`Nc1nc2c(ncn2[C@@H]2C[C@H](CO)[C@@H](O)C2)c(=O)[nH]1` (relative stereo) [±2'-CdG]: the “Reduction in CMV Yield” value with HCMV [1] ((±)-2'-CDG 0.32 (mM as printed)) was determined as 0.7 Log10 PFU/ML; in the series on HCMV [1] ((±)-2'-CDG 1.0 (mM as printed)) it was 1.0 Log10 PFU/ML; in the series with HCMV [1] ((±)-2'-CDG 3.2 (mM as printed)), 1.7 Log10 PFU/ML; in the series with HCMV [1] ((±)-2'-CDG 10.0 (mM as printed)) it was 2.7 Log10 PFU/ML; with HCMV [5] ((±)-2'-CDG 0.1 (mM as printed), DHPG 0), 0.1 Log10 PFU/ML; in the series on HCMV [5] ((±)-2'-CDG 0.32 (mM as printed), DHPG 0), 0.5 Log10 PFU/ML. The “Reduction in CMV Yield” value with HCMV [5] ((±)-2'-CDG 1.0 (mM as printed), DHPG 0) is reported as 0.6 Log10 PFU/ML; in the series on HCMV [5] ((±)-2'-CDG 3.2 (mM as printed), DHPG 0), 1.0 Log10 PFU/ML. In addition, half-maximal inhibition with CMV [2] (IC50) was put at 0.069 µg/mL (≈ 0.26 µM). Moreover, the “CMV Yield” value in [3] (0.032 μg/ml, virus control 5.5) stood at 5.4 log10 CCID50 /ml; in series [3] (setting [10]), 5.0 log10 CCID50 /ml; in series [3] (setting [11]), 4.5 log10 CCID50 /ml; in series [3] (setting [12]) it was 3.6 log10 CCID50 /ml; in [3] (setting [13]), 1.0 log10 CCID50 /ml; in series [3] (setting [14]), 0 log10 CCID50 /ml. The “CMV Yield” value with CMV [6] (Table 4, 0.032 μg/mL) turned out to be 5.4 log10 CCID50 /mL; in the series with CMV [6] (Table 4, 0.1 μg/mL), 5.0 log10 CCID50 /mL; with CMV [6] (Table 4, 0.32 μg/mL), 4.5 log10 CCID50 /mL; in the series with CMV [6] (Table 4, 1.0 μg/mL) it was 3.6 log10 CCID50 /mL; in the series with CMV [6] (Table 4, 3.2 μg/mL) it was 1.0 log10 CCID50 /mL; with CMV [6] (Table 4, 10 μg/mL), 0 log10 CCID50 /mL. The “Drug Cytotoxicity (gross morphology)” value is reported as 0 in the series on MRC5 cells (Table 4, 0.032 μg/mL); 0 with MRC5 cells (Table 4, 0.1 μg/mL); 0 with MRC5 cells (Table 4, 0.32 μg/mL); 0 in the series on MRC5 cells (Table 4, 1.0 μg/mL); “v. sl” in the series with MRC5 cells (Table 4, 3.2 μg/mL); “sl. toxicity” in the series on MRC5 cells (Table 4, 10 μg/mL). Moreover, the “Drug Cytotoxicity (gross morphology)” value in the series with MRC5 cells (Table 4, 32 μg/mL) is listed as “toxic”; in series [7] (0.032 μg/ml), 0; in series [7] (0.1 μg/ml) it was 0; in series [7] (0.32 μg/ml) it was 0; in series [7] (1.0 μg/ml), 0; in series [7] (3.2 μg/ml) it was “v. sl. toxic”. In addition, the entries for the “Drug Cytotoxicity (gross morphology)” value in series [7] (10 μg/ml) and in [7] (32 μg/ml) were “sl. toxic” and “toxic”, respectively. For the same molecule, the inhibition at 0.032 µg/mL in series [4] (0.032 μg/ml) came to 0%; with CMV [8] (Table 4, 0.032 μg/mL), 0%. Moreover, the inhibition at 0.1 µg/mL in series [4] stood at 0%; in the series on CMV [8] (Table 4, 0.1 μg/mL) it was 0%. Moreover, the inhibition at 0.32 µg/mL is 20% in series [4] and 20% in the series on CMV [8] (Table 4, 0.32 μg/mL). The inhibition at 1 µg/mL was found to be 95% in series [4] and 95% in the series with CMV [8] (Table 4, 1.0 μg/mL). Also, the inhibition at 3.2 µg/mL was 100% in series [4] and 100% in the series on CMV [8] (Table 4, 3.2 μg/mL). Moreover, the inhibition at 10 µg/mL in [4] was found to be 100%; in the series on CMV [8] (Table 4, 10 μg/mL), 100%.
Consider `Nc1nc(O)c2ncn(COC(CO)CO)c2n1` [DHPG, dihydroxy propoxymethyl guanine, reference compound], for which the “CMV Yield” value in [3] (setting [10]) came to 4.7 log10 CCID50 /ml; in series [3] (setting [11]) it was 4.6 log10 CCID50 /ml; in series [3] (setting [12]), 3.6 log10 CCID50 /ml; in series [3] (setting [13]), 2.3 log10 CCID50 /ml; in [3] (setting [14]) it was 1.0 log10 CCID50 /ml; in series [3] (32 μg/ml, virus control 5.5 (DHPG 5.3)), 0 log10 CCID50 /ml. In addition, the “CMV Yield” value in [3] (100 μg/ml, virus control 5.5 (DHPG 5.3)) was 0 log10 CCID50 /ml; in series [3] (320 μg/ml, virus control 5.3), 0 log10 CCID50 /ml. For the same molecule, in series [4], the inhibition at 0.1 µg/mL worked out at 0%. The inhibition at 0.32 µg/mL in series [4] stood at 5%. Also, the inhibition at 1 µg/mL in [4] stood at 30%. The inhibition at 3.2 µg/mL in [4] was determined as 60%. Besides, the inhibition at 10 µg/mL in series [4] stood at 95%. Also, the inhibition at 32 µg/mL in [4] (32 μg/ml) was 100%. Further, the inhibition at 100 µg/mL in series [4] (100 μg/ml) was 100%. In series [4] (320 μg/ml), the inhibition at 320 µg/mL worked out at 100%. Besides, the “Reduction in CMV Yield” value with HCMV [5] ((±)-2'-CDG 0, DHPG 1.0 μM) is reported as 0.5 Log10 PFU/ML; with HCMV [5] ((±)-2'-CDG 0, DHPG 3.2 μM), 1.3 Log10 PFU/ML; with HCMV [5] ((±)-2'-CDG 0, DHPG 10.0 μM), 1.8 Log10 PFU/ML. Also, the toxicity entry in the series on cytomegalovirus is listed as “dose-limiting toxicity”. Besides, the “Drug Cytotoxicity (gross morphology)” value in [7] (320 μg/ml) is listed as “sl. toxicity”. The EC50 in the series on CMV [9] stood at 0.2 µg/mL (≈ 0.784 µM).

Usually IC50 stands for the concentration that inhibits the measured activity by half.
